This is an account of results in article PMC9861092, “Napyradiomycin A4 and Its Relate Compounds, a New Anti-PRV Agent and Their Antibacterial Activities, from Streptomyces kebangsaanensis WS-68302” (Molecules, 2023).

Each structure is given as a SMILES string. In brackets after ≈: the same amount, converted by molar mass. Entries after “also recorded” stand apart in the source; their conditions may differ. Structures can show the parent of a compound that is named as a salt.

For data set [1], the system named is Staphylococcus aureus ATCC 25923. In words: microbe, parasite or virus in culture. The class given is cell-based. The conditions noted are these: for MIC: Staphylococcus aureus, ATCC25923, read-out: MIC S. aureus.
In a further data set the test system is Streptococcus suis SC19. In words: microbe, parasite or virus in culture. The class given is cell-based. The conditions noted are these: for MIC: Streptococcus suis, SC19, read-out: MIC S. suis.
The test system of data set [2] is Erysipelothrix rhusiopathiae WH13013. The data set can be described thus: microbe, parasite or virus in culture. The conditions noted are these: for MIC: Erysipelothrix rhusiopathiae, WH13013, read-out: MIC E. rhusiopathiae. In kind it is cell-based.
Data set [3] concerns Escherichia coli ATCC 25922. The class given is cell-based.
Another data set deals with PRV protein. In kind it is cell-based, Pseudorabies virus.
The subject of data set [4] is PRV (Pseudorabies virus).
A short description of the next data set: in vitro. The note with it: African green monkey.
For data set [5], the system named is PRV (Pseudorabies virus). In words: microbe, parasite or virus in culture. The note with it: Suid alphaherpesvirus 1, MARC145, 72 h, read-out: IC50 against PRV.
The subject of data set [6] is Bacillus subtilis ATCC6633. The note with it: cited from earlier work.

On to `CO/N=C(\C(=O)N[C@@H]1C(=O)N2C(C(=O)[O-])=C(C[n+]3cccc4c3CCC4)CS[C@H]12)c1csc(N)n1.O=S(=O)(O)O` [Cefpirome Sulfate, cefpirome sulfate, reference compound], for which the “MIC S. aureus” value in [1] is less than 0.78 µg/mL. The “MIC S. suis” value with Streptococcus suis SC19 was less than 0.78 µg/mL. In addition, the “MIC E. rhusiopathiae” value in data set [2] is less than 0.78 µg/mL. Besides, the “MIC E. coli” value in [3] is 25 µg/mL.

On to `CC(=CCC12OC(C)(C)C(Cl)CC1(Cl)C(=O)c1c(O)cc(O)cc1C2=O)CCC(=O)C(C)C` (stereo not shown) [Compound 1, napyradiomycin A4], for which the “Suppression of PRV protein (green fluorescence intensity) in indirect immunofluorescence assay” value (“Suppression of PRV protein” below) in the data set with PRV protein is listed as “strongest inhibition; also recorded: significantly suppressed”. The MIC in data set [1] came out at 25 µg/mL (≈ 50.3 µM). In the data set on Streptococcus suis SC19, the “MIC S. suis” value is reported as “weak activity” and the MIC was found to be 100 µg/mL (≈ 201 µM). Moreover, in data set [2], the “MIC E. rhusiopathiae” value is 50 µg/mL (≈ 101 µM) and the MIC fell in the range of 25 to 50 µg/mL (≈ 50.3 to 101 µM). The “TI (therapeutic index = CC50/IC50)” value in the data set on PRV (Pseudorabies virus) [4] was 14.98. The compound further gave a CC50 in “in vitro” of 30.8 ± 5.57 µM. Besides, in the data set with PRV (Pseudorabies virus) [5], the IC50 (usually the midpoint of a concentration-inhibition curve) stood at 2.06 ± 0.343 µM.

Turning to `CC(C)=CCC12OC1(CC=C(C)C(O)CC=C(C)CO)C(=O)c1cc(O)cc(O)c1C2=O` (stereo not shown) [Compound 2, A80915H], the “MIC S. aureus” value in data set [1] is “did not show any activity and -”. Besides, the “MIC S. suis” value in the data set on Streptococcus suis SC19 was “did not show any activity and -”. The “MIC E. rhusiopathiae” value in data set [2] is “did not show any activity and -”. The “IC50 against PRV” value in the data set on PRV (Pseudorabies virus) [4] is “did not display any apparent anti-PRV activity”. In “in vitro”, the CC50 was greater than 90 µM. Moreover, the concentration for half-maximal inhibition (IC50) in the data set on PRV (Pseudorabies virus) [5] was greater than 90 µM.

`CC(C)=CCC/C(C)=C/C[C@@]12OC(C)(C)[C@H](Cl)C[C@]1(Cl)C(=O)c1c(O)cc(O)cc1C2=O` [Compound 3, napyradiomycin A1]: the “Suppression of PRV protein” value in the data set with PRV protein is on record as “significantly suppressed”. Further, the “MIC S. aureus” value in [1] is recorded as “potent activities”. Further, the MIC in data set [1] was less than 0.78 µg/mL; with Streptococcus suis SC19, 3.12 µg/mL (≈ 6.49 µM); in [2], 25 to 50 µg/mL (≈ 51.9 to 104 µM). Besides, the “MIC E. rhusiopathiae” value in data set [2] turned out to be 50 µg/mL (≈ 104 µM). Moreover, the “TI (therapeutic index = CC50/IC50)” value with PRV (Pseudorabies virus) [4] was 2.62. The same compound gave a CC50 in the data set “in vitro” of 5.79 ± 0.708 µM. The IC50 in the data set on PRV (Pseudorabies virus) [5] was 2.21 ± 0.375 µM.

On to `C=C1CC[C@H](Cl)C(C)(C)C1C[C@@]12OC(C)(C)[C@H](Cl)C[C@]1(Cl)C(=O)c1c(O)cc(O)cc1C2=O` (stereo partly shown) [Compound 4, napyradiomycin B1], for which, in the data set on PRV protein, the “Suppression of PRV protein” value is reported as “significantly suppressed”. In data set [1], the “MIC S. aureus” value is given as “potent activities” and the MIC was less than 0.78 µg/mL. Also, the MIC in the data set with Streptococcus suis SC19 was found to be 6.25 µg/mL (≈ 12.1 µM). In [2], the “MIC E. rhusiopathiae” value is 50 µg/mL (≈ 96.9 µM) and the MIC was in the range of 25 to 50 µg/mL (≈ 48.5 to 96.9 µM). In the data set “in vitro”, this compound registered a CC50 of 19.6 ± 2.82 µM. Further, the concentration for half-maximal inhibition (IC50) in the data set with PRV (Pseudorabies virus) [5] amounted to 13.3 ± 1.11 µM.

Take `CC(C)=CCC/C(C)=C/C[C@@]12O[C@]1(CC=C(C)C)C(=O)c1c(O)cc(O)cc1C2=O` [Compound 5, A80915G]: the MIC in the data set on Streptococcus suis SC19 came out at 25 µg/mL (≈ 60.9 µM). Moreover, in data set [2], the “MIC E. rhusiopathiae” value came out at 25 µg/mL (≈ 60.9 µM) and the MIC is 25 to 50 µg/mL (≈ 60.9 to 122 µM). Also, the “TI (therapeutic index = CC50/IC50)” value with PRV (Pseudorabies virus) [4] is given as 2.05. Besides, the CC50 in “in vitro” is 16.7 ± 1.12 µM. The IC50 in the data set with PRV (Pseudorabies virus) [5] was found to be 8.26 ± 0.902 µM.

Regarding `CC(C)=CC[C@]12O[C@@]1(C/C=C(\C)CC/C=C(\C)C(=O)O)C(=O)c1cc(O)cc(O)c1C2=O` [Compound 6, A80915G-8″-acid], the MIC is 50 µg/mL (≈ 114 µM) in [1], 50 µg/mL (≈ 114 µM) in the data set on Streptococcus suis SC19 and 25 to 50 µg/mL (≈ 56.8 to 114 µM) in data set [2]. Further, in [2], the “MIC E. rhusiopathiae” value came out at 25 µg/mL (≈ 56.8 µM). In addition, in [6], the “MIC against Bacillus subtilis ATCC6633” value was 64 µg/mL (≈ 145 µM). In the data set “in vitro”, this compound came in with a CC50 of 46.3 ± 7.36 µM. For the same compound, in the data set on PRV (Pseudorabies virus) [5], the IC50 came to 26.5 ± 5 µM.

On to `CC(C)=CCC/C(C)=C/C[C@]1(O)C(=O)c2cc(O)cc(O)c2C(=O)[C@@]1(Cl)CC=C(C)C` [Compound 7, naphthomevalin], for which the “MIC S. aureus” value in data set [1] is recorded as “potent activities”. Further, the results for the MIC (in data set [1]; in the data set on Streptococcus suis SC19; in [2]) were less than 0.625 µg/mL, 20 µg/mL (≈ 44.7 µM) and 40 µg/mL (≈ 89.5 µM), respectively. Also, in the data set with PRV (Pseudorabies virus) [4], the “IC50 against PRV” value is given as “did not display any apparent anti-PRV activity”. In the data set “in vitro”, this compound came in with a CC50 greater than 0.045 µM. Also, in the data set with PRV (Pseudorabies virus) [5], the half-maximal inhibitory concentration (IC50) was greater than 90 µM.

On to `CC1(C)S[C@@H]2[C@H](NC(=O)Cc3ccccc3)C(=O)N2[C@H]1C(=O)O` [Penicillin G, Penicillin G sodium salt, reference compound], for which the MIC worked out at 12.5 µg/mL with Streptococcus suis SC19 and 50 µg/mL in data set [2].

Consider `NC(=O)c1ncn([C@@H]2O[C@H](CO)[C@@H](O)[C@H]2O)n1` [Ribavirin, reference compound], for which, in the data set with PRV (Pseudorabies virus) [4], the “TI (therapeutic index = CC50/IC50)” value is given as greater than 2.82. In the data set “in vitro”, this compound displayed a CC50 greater than 164 µM. Moreover, the IC50 in the data set on PRV (Pseudorabies virus) [5] was 58 µM.
